Test system: lung gene expression
Assay: RNA sequencing of lung tissue (BLM/EL244 vs BLM)
Format: in vivo, mouse
Procedure: RNA quality was assessed using an Agilent TapeStation 4150 with the High Sensitivity […] ScreenTape (Agilent), according to the manufacturer’s protocols. For library preparation, the QuantSeq 3’mRNA-Seq Library Prep Kit (Lexogen) was used according to manufacturer’s instructions. Briefly, 500 ng of RNA from each sample was used for first-strand synthesis, followed by RNA template removal, and second-strand synthesis initiated by random primers. In-line barcodes were introduced at this step, and this was followed by magnetic bead-based purification. The resulting libraries were amplified for 15 cycles and re-purified, with quantity and quality assessed on a Qubit 4 Fluorometer with the Invitrogen Qubit dsDNA HS Assay and an Agilent Tapestation 4150 with the High Sensitivity D1000 assay kit, respectively. The quantified libraries were pooled equimolarly; 50ng of total library mix was used for Adapter Conversion PCR Amplification using the Universal Library Conversion Kit (App-A), Version: V1.0 (MGI Tech Co., Ltd.), according to the manufacturer’s instructions.
The quantity and quality of the purified adapter conversion PCR (AC-PCR) product were evaluated on a Qubit 4 Fluorometer with the Invitrogen Qubit dsDNA HS Assay and on an Agilent Tapestation 4150 with the High Sensitivity D1000 assay kit, respectively. This was followed by DNA denaturation, Single-Strand Circularisation, Enzymatic Digestion, Enzymatic Digestion Product Cleanup and Quality Control steps on 1 pmol of AC-PCR product, according to the Universal Library Conversion Kit (App-A) User Manual (Version: A3).
Finally, 60 fmol of ssCirDNA were used for DNB preparation and sequencing on a DNBSEQ-G400 platform at the BSRC Alexander Fleming Genomics Facility, using a G400 App-A FCS SE100 High-throughput Sequencing Set (MGI Tech Co., Ltd.), according to the manufacturer’s instructions.
Alignment of the FASTQ files was performed against the mouse genome build mm10 using a custom Bash script.[143] Read counting on the 3′ UTRs and differential expression analysis were conducted using the metaseqR2 bioconductor package.[144] Genes corresponding to the following biotypes were excluded: polymorphic_pseudogene, processed_transcript, pseudogene, IG_V_pseudogene, misc_RNA, IG_C_gene, IG_J_gene, IG_D_gene, IG_LV_gene, TR_V_gene, TR_V_pseudogene, TEC, and processed_pseudogene. Gene counts were normalized with DESEQ[145] through metaseqR2. Genes with more than 10 counts in at least 50% of the samples were kept for further processing. For differential expression analysis, the PANDORA algorithm[146] was used to estimate a meta p-value integrating the results from the DESEQ, DESEQ2,[147] edgeR,[148] limma,[149] NBPSeq,[150] and NOISeq[151] algorithms. All additional parameters were set to default values.
Pathway enrichment analysis was performed for the Gene Ontology Biological process (BP) and Molecular Function (MF) terms through GeneCodis 4.[152] The volcano plots, scatterplots, Venn diagrams, and dot plots were generated using the ggplot2 Bioconductor package.

## O=C1NC(=O)C(Cc2ccc(OCCC3CCN(C(=O)OCc4cc(Cl)cc(Cl)c4)CC3)cc2)S1 (stereo not drawn) [EL244, 3,5-dichlorobenzyl 4-(2-(4-((2,4-dioxothiazolidin-5-yl)methyl)phenoxy)ethyl)piperidine-1-carboxylate]
BLM/EL244 vs BLM, lung tissue
  Rbm24 nFC: 2.29
  Rdh12 log2 nFC: 1.74
  Rdh12 nFC: 3.34
  Retnlg log2 nFC: 1.46
  Retnlg nFC: 2.74
  Ryr2 log2 nFC: 2.14
  Ryr2 nFC: 4.39
  S1pr5 log2 nFC: 1.64
  S1pr5 nFC: 3.12
  S100a8 log2 nFC: 1.52
  S100a8 nFC: 2.86
  S100a9 log2 nFC: 2.11
  S100a9 nFC: 4.32
  Scel log2 nFC: 1.31
  Scel nFC: 2.47
  Shank3 log2 nFC: 1.61
  Shank3 nFC: 3.05
  Slc38a4 log2 nFC: 1.12
  Slc38a4 nFC: 2.17
  Sln log2 nFC: 2.01
  Sln nFC: 4.02
  Smad6 log2 nFC: 1.18
  Smad6 nFC: 2.26
  Smpx log2 nFC: 2.34
  Smpx nFC: 5.08
  Smyd1 log2 nFC: 1.73
  Smyd1 nFC: 3.32
  Snhg11 log2 nFC: 1.40
  Snhg11 nFC: 2.64
  Snx21 log2 nFC: 1.15
  Snx21 nFC: 2.21
  Sox18 log2 nFC: 1.91
  Sox18 nFC: 3.76
  Spink5 log2 nFC: 1.36
  Spink5 nFC: 2.57
  Tbata log2 nFC: 1.72
  Tbata nFC: 3.30
  Tcap log2 nFC: 1.73
  Tcap nFC: 3.32
  Tex11 log2 nFC: 1.83
  Tex11 nFC: 3.55
  Tmem182 log2 nFC: 2.26
  Tmem182 nFC: 4.78
  Tmem132d log2 nFC: 2.38
  Tmem132d nFC: 5.19
  Tnnc1 log2 nFC: 2.18
  Tnnc1 nFC: 4.53
  Tnni3 log2 nFC: 2.31
  Tnni3 nFC: 4.95
  Tnnt2 log2 nFC: 1.77
  Tnnt2 nFC: 3.42
  Ttn log2 nFC: 2.53
  Ttn nFC: 5.78
  Upk3b log2 nFC: 1.53
  Upk3b nFC: 2.88
  Xndc1 log2 nFC: 1.14
  Xndc1 nFC: 2.21
  Zbtb16 log2 nFC: 1.33
  Zbtb16 nFC: 2.51
  Zmynd10 log2 nFC: 1.28
  Zmynd10 nFC: 2.44
DEG 1810010H24Rik, nFC: normalised fold change
  1810010H24Rik log2 nFC BLM/EL244 vs BLM: 0.90
DEG 1810020O05Rik, nFC: normalised fold change
  1810020O05Rik log2 nFC BLM/EL244 vs BLM: 1.58
DEG 2410004I01Rik, nFC: normalised fold change
  2410004I01Rik log2 nFC BLM/EL244 vs BLM: 1.80
DEG 9330159F19Rik, nFC: normalised fold change
  9330159F19Rik log2 nFC BLM/EL244 vs BLM: 1.78
DEG 9530026P05Rik, nFC: normalised fold change
  9530026P05Rik log2 nFC BLM/EL244 vs BLM: 3.17
DEG A3galt2, nFC: normalised fold change
  A3galt2 log2 nFC BLM/EL244 vs BLM: 2.32
DEG AA467197
  log2 nFC BLM/EL244 vs BLM: -1.39
DEG Abca8a, nFC: normalised fold change
  Abca8a log2 nFC BLM/EL244 vs BLM: 0.75
DEG Abi3bp, nFC: normalised fold change
  Abi3bp log2 nFC BLM/EL244 vs BLM: 1.00
DEG Acaa1b, nFC: normalised fold change
  Acaa1b log2 nFC BLM/EL244 vs BLM: 1.43
DEG Acbd4, nFC: normalised fold change
  Acbd4 log2 nFC BLM/EL244 vs BLM: 0.86
DEG Acot1, nFC: normalised fold change
  Acot1 log2 nFC BLM/EL244 vs BLM: 1.08
DEG Acoxl, nFC: normalised fold change
  Acoxl log2 nFC BLM/EL244 vs BLM: 1.23
DEG Actc1, nFC: normalised fold change
  Actc1 log2 nFC BLM/EL244 vs BLM: 1.28
DEG Adam3, nFC: normalised fold change
  Adam3 log2 nFC BLM/EL244 vs BLM: 1.67
DEG Adam12
  log2 nFC BLM/EL244 vs BLM: -1.57
DEG Adamts12
  log2 nFC BLM/EL244 vs BLM: -1.47
DEG Adh7, nFC: normalised fold change
  Adh7 log2 nFC BLM/EL244 vs BLM: 1.02
DEG Alas2, nFC: normalised fold change
  Alas2 log2 nFC BLM/EL244 vs BLM: 1.58
DEG Aldh1a1, nFC: normalised fold change
  Aldh1a1 log2 nFC BLM/EL244 vs BLM: 0.78
DEG Ankrd37
  log2 nFC BLM/EL244 vs BLM: -1.50
DEG Ankrd44, nFC: normalised fold change
  Ankrd44 log2 nFC BLM/EL244 vs BLM: 0.84
DEG Ankrd63, nFC: normalised fold change
  Ankrd63 log2 nFC BLM/EL244 vs BLM: 1.34
DEG Aox3, nFC: normalised fold change
  Aox3 log2 nFC BLM/EL244 vs BLM: 1.07
DEG Aqp9, nFC: normalised fold change
  Aqp9 log2 nFC BLM/EL244 vs BLM: 1.66
DEG Ar, nFC: normalised fold change
  Ar log2 nFC BLM/EL244 vs BLM: 1.04
DEG Arhgap28, nFC: normalised fold change
  Arhgap28 log2 nFC BLM/EL244 vs BLM: 1.14
DEG Arhgef38, nFC: normalised fold change
  Arhgef38 log2 nFC BLM/EL244 vs BLM: 0.87
DEG Arl4a, nFC: normalised fold change
  Arl4a log2 nFC BLM/EL244 vs BLM: 0.70
DEG Armcx4
  log2 nFC BLM/EL244 vs BLM: -1.32
DEG Arrdc2, nFC: normalised fold change
  Arrdc2 log2 nFC BLM/EL244 vs BLM: 1.24
DEG Asgr1, nFC: normalised fold change
  Asgr1 log2 nFC BLM/EL244 vs BLM: 1.80
DEG Atp2a3, nFC: normalised fold change
  Atp2a3 log2 nFC BLM/EL244 vs BLM: 0.83
DEG Atp6v1c2, nFC: normalised fold change
  Atp6v1c2 log2 nFC BLM/EL244 vs BLM: 1.03
DEG Baiap3, nFC: normalised fold change
  Baiap3 log2 nFC BLM/EL244 vs BLM: 1.24
DEG Bbof1, nFC: normalised fold change
  Bbof1 log2 nFC BLM/EL244 vs BLM: 1.11
DEG Bcl2a1d
  log2 nFC BLM/EL244 vs BLM: -1.29
DEG Bex2, nFC: normalised fold change
  Bex2 log2 nFC BLM/EL244 vs BLM: 1.46
DEG Bmp6, nFC: normalised fold change
  Bmp6 log2 nFC BLM/EL244 vs BLM: 1.07
DEG Bpifa1, nFC: normalised fold change
  Bpifa1 log2 nFC BLM/EL244 vs BLM: 1.12
DEG C1qa
  log2 nFC BLM/EL244 vs BLM: -1.44
DEG C1qb
  log2 nFC BLM/EL244 vs BLM: -1.51
DEG C1qc
  log2 nFC BLM/EL244 vs BLM: -1.56
DEG C1qtnf6
  log2 nFC BLM/EL244 vs BLM: -1.38
DEG C3ar1
  log2 nFC BLM/EL244 vs BLM: -1.58
DEG C130080G10Rik, nFC: normalised fold change
  C130080G10Rik log2 nFC BLM/EL244 vs BLM: 3.58
DEG Car3, nFC: normalised fold change
  Car3 log2 nFC BLM/EL244 vs BLM: 1.57
DEG Casq2, nFC: normalised fold change
  Casq2 log2 nFC BLM/EL244 vs BLM: 2.36
DEG Cbr2, nFC: normalised fold change
  Cbr2 log2 nFC BLM/EL244 vs BLM: 0.91
DEG Ccdc153, nFC: normalised fold change
  Ccdc153 log2 nFC BLM/EL244 vs BLM: 0.79
DEG Ccdc171, nFC: normalised fold change
  Ccdc171 log2 nFC BLM/EL244 vs BLM: 1.04
DEG Ccl2
  log2 nFC BLM/EL244 vs BLM: -1.43
DEG Ccl8
  log2 nFC BLM/EL244 vs BLM: -1.54

From article PMC13198257, “An aerosolized dual-action autotaxin inhibitor-PPARγ agonist for the treatment of pulmonary fibrosis” (Cell Reports Medicine, 2026)
